Values quoted from earlier work in US20020072062A1, “Chloramphenicol biosynthetic pathway and gene cluster” (Diversa Corporation, priority 1999, published 2002).
Where two headings read alike, the source gives them in different places.

Legend:
[1] = test system: Streptomyces venezuelae ISP5230
[2] = test system: Cm-sensitive Micrococcus luteus; details: against Cm-sensitive Micrococcus luteus; metabolite of Cm from S. lividans M252 pJV4 transformants

Q: For `Nc1ccc(S(N)(=O)=O)cc1` [sulfanilamide], which sulfanilamide resistance ([1]; before replacement of chromosomal pabAB) is on record?
A: 25 micrograms mL-1

Q: What about the sulfanilamide resistance ([1]; chromosomal pabAB replaced with copy disrupted by apramycin resistance gene) of the same molecule?
A: 5 micrograms mL-1

Q: For `O=C(NC(COP(=O)(O)O)C(O)c1ccc([N+](=O)[O-])cc1)C(Cl)Cl` (stereo not drawn) [3′-O-phospho-Cm], which inhibitory activity [2] is on record?
A: negligible inhibitory activity
